Laboratory results reported in patent US20240109903A1, “SUBSTITUTED HETEROCYCLES FOR TREATING CANCER” (Northwestern University, priority 2022, published 2024).
pIC50: −log10 of the molar value. Like-named read-outs stand apart in the source and are kept apart here.

Columns and labels:
Type in all cases: cell-based
SW-620 = assay: NCI 60 five-dose screen SW-620; details: Homo sapiens, five-dose
[1] = test system: MV-4-11 acute myeloid leukemia cells; assay: CellTiter-Glo 2.0 cell viability, MV-4-11; details: Homo sapiens
Protocol: 2019 October; 94(4): 1813-1823.
Cell viability was assessed using the CellTiter-Glo 2.0 assay from Promega, which yields a signal proportional to the amount of ATP present in a cell population. Compounds were first dispensed into empty 96-well flat-bottom tissue culture-treated plates (Corning) using an Echo550. MV4-1 cells were diluted to a density of 0.1 million cells per ml, pipetted onto the compounds at a density of 1,000 cells per well for U937 and 3,000 cells per well for MV4-11, mixed, and incubated for 3 days at 37° C. with 5% C02. After incubating, 5 μl of cells from each well were added to 5 μl of CellTiter-Glo 2.0 reagent in a384-well white ProxiPlate (PerkinElmer), incubated for 20 minutes at ambient temperature, and luminescence was analyzed on an EnSpire plate reader. Graphing and regression analysis was performed in Graphpad Prism.

A549/ATCC = assay: NCI 60 five-dose screen A549/ATCC; details: Homo sapiens, five-dose
NCI-H23 = assay: NCI 60 five-dose screen NCI-H23; details: Homo sapiens, five-dose
ACHN = assay: NCI 60 five-dose screen ACHN; details: Homo sapiens, five-dose
OVCAR-4 = assay: NCI 60 five-dose screen OVCAR-4; details: Homo sapiens, five-dose
M14 = assay: NCI 60 five-dose screen M14; details: Homo sapiens, five-dose
DU-145 = assay: NCI 60 five-dose screen DU-145; details: Homo sapiens, five-dose
MALME-3M = assay: NCI 60 five-dose screen MALME-3M; details: Homo sapiens, MALME-3M, five-dose
K-562 = assay: NCI 60 five-dose screen K-562; details: Homo sapiens, K562, five-dose
EKVX = assay: NCI 60 five-dose screen EKVX; details: Homo sapiens, five-dose
PC-3 = assay: NCI 60 five-dose screen PC-3; details: Homo sapiens, five-dose
T-47D = assay: NCI 60 five-dose screen T-47D; details: Homo sapiens, T47D, five-dose
SF-295 = assay: NCI 60 five-dose screen SF-295; details: Homo sapiens, five-dose
A498 = assay: NCI 60 five-dose screen A498; details: Homo sapiens, five-dose
HS 578T = assay: NCI 60 five-dose screen HS 578T; details: Homo sapiens, five-dose
IGROV1 = assay: NCI 60 five-dose screen IGROV1; details: Homo sapiens, IGROV-1, five-dose
NCI-H522 = assay: NCI 60 five-dose screen NCI-H522; details: Homo sapiens, five-dose
SK-MEL-2 = assay: NCI 60 five-dose screen SK-MEL-2; details: Homo sapiens, five-dose
OVCAR-3 = assay: NCI 60 five-dose screen OVCAR-3; details: Homo sapiens, five-dose
HOP-92 = assay: NCI 60 five-dose screen HOP-92; details: Homo sapiens, five-dose
HCT-116 = assay: NCI 60 five-dose screen HCT-116; details: Homo sapiens, five-dose
MCF7 = assay: NCI 60 five-dose screen MCF7; details: Homo sapiens, five-dose
CCRF-CEM = assay: NCI 60 five-dose screen CCRF-CEM; details: Homo sapiens, five-dose
[2] = read-out: LC50 (the source's name) (converted)
[3] = read-out: LC50 (the source's name)

`OC1CCC(Cn2c(C(F)(F)F)cc3c(Cl)ncnc32)CC1` (stereo not shown) [NUCC-0226689] was tested, and the GI50 (SW-620) was 12.3 µM, the pIC50 (SW-620) was 4.77 and the IC (TGI) (SW-620) was 38.9 µM. It also gave a CC50 (SW-620; [2]) of no less than 100 µM, an IC50 ([1]; MV4-11, 72 h, MV-4-11 cells, 3 days, CellTiter-Glo 2.0, read-out: IC50 (uM) [Cell Type: MV-4-11]) of 0.689 µM and a pIC50 ([1]; MV4-11, bound stated in text, read-out: IC50 against MV-4-11 acute myeloid leukemia cells) greater than 5.70. It also gave a GI50 (A549/ATCC) of 30.9 µM, a pIC50 (A549/ATCC) of 4.36 and an IC (TGI) (A549/ATCC) of 100 µM. For the same molecule, the CC50 (A549/ATCC; [2]) was no less than 100 µM, the GI50 (NCI-H23) was 3.09 µM and the pIC50 (NCI-H23) was 5.26. It also gave an IC (TGI) (NCI-H23) of 11.5 µM, a CC50 (NCI-H23; [2]) of 45.7 µM and a GI50 (ACHN) of 8.71 µM. It also gave a pIC50 (ACHN) of 4.81, an IC (TGI) (ACHN) of 50.1 µM and a CC50 (ACHN; [2]) of no less than 100 µM. For the same molecule, the GI50 (OVCAR-4) was 17.8 µM, the pIC50 (OVCAR-4) was 4.43 and the IC (TGI) (OVCAR-4) was 46.8 µM. The CC50 (OVCAR-4; [2]) was no less than 100 µM, the GI50 (M14) was 4.9 µM and the pIC50 (M14) was 5.06. The IC (TGI) (M14) was 26.9 µM, the CC50 (M14; [2]) was no less than 100 µM and the GI50 (DU-145) was 7.94 µM. For the same molecule, the pIC50 (DU-145) was 4.86, the IC (TGI) (DU-145) was 20.4 µM and the CC50 (DU-145; [2]) was 46.8 µM. For the same molecule, the GI50 (MALME-3M) was 17.8 µM, the pIC50 (MALME-3M) was 4.07 and the IC (TGI) (MALME-3M) was 64.6 µM. For the same molecule, the CC50 (MALME-3M; [2]) was no less than 100 µM, the GI50 (K-562) was 2.88 µM and the pIC50 (K-562) was 5.45. For the same molecule, the IC (TGI) (K-562) was 100 µM, the CC50 (K-562; [3]) was no less than 100 µM and the GI50 (EKVX) was 12.9 µM. The pIC50 (EKVX) was 4.53, the IC (TGI) (EKVX) was 38.9 µM and the CC50 (EKVX; [2]) was no less than 100 µM. It also gave a GI50 (PC-3) of 8.91 µM, a pIC50 (PC-3) of 4.81 and an IC (TGI) (PC-3) of 36.3 µM. The CC50 (PC-3; [2]) was no less than 100 µM, the GI50 (T-47D) was 26.3 µM and the pIC50 (T-47D) was 4.04. It also gave an IC (TGI) (T-47D) of 100 µM, a CC50 (T-47D; [3]) of no less than 100 µM and a GI50 (SF-295) of 22.9 µM. The pIC50 (SF-295) was 4.41, the IC (TGI) (SF-295) was 83.2 µM and the CC50 (SF-295; [2]) was no less than 100 µM. The GI50 (A498) was 100 µM, the pIC50 (A498) was 4.00 and the IC (TGI) (A498) was 100 µM. It also gave a CC50 (A498; [2]) of no less than 100 µM, a GI50 (HS 578T) of 13.8 µM and a pIC50 (HS 578T) of 4.03. It also gave an IC (TGI) (HS 578T) of 53.7 µM, a CC50 (HS 578T; [3]) of no less than 100 µM and a GI50 (IGROV1) of 1.95 µM. It also gave a pIC50 (IGROV1) of 5.46, an IC (TGI) (IGROV1) of 4.07 µM and a CC50 (IGROV1; [2]) of 8.51 µM. The GI50 (NCI-H522) was 1.55 µM, the pIC50 (NCI-H522) was 5.51 and the IC (TGI) (NCI-H522) was 3.55 µM. For the same molecule, the CC50 (NCI-H522; [2]) was 8.13 µM, the GI50 (SK-MEL-2) was 13.2 µM and the pIC50 (SK-MEL-2) was 4.54. The IC (TGI) (SK-MEL-2) was 28.2 µM, the CC50 (SK-MEL-2; [2]) was 58.9 µM and the GI50 (OVCAR-3) was 8.13 µM. For the same molecule, the pIC50 (OVCAR-3) was 4.72, the IC (TGI) (OVCAR-3) was 28.8 µM and the CC50 (OVCAR-3; [2]) was 97.7 µM. It also gave a GI50 (HOP-92) of 20.4 µM, a pIC50 (HOP-92) of 4.13 and an IC (TGI) (HOP-92) of 64.6 µM. It also gave a CC50 (HOP-92; [2]) of no less than 100 µM, a GI50 (HCT-116) of 3.55 µM and a pIC50 (HCT-116) of 5.38. The IC (TGI) (HCT-116) was 15.8 µM, the CC50 (HCT-116; [2]) was 72.4 µM and the GI50 (MCF7) was 37.2 µM. For the same molecule, the pIC50 (MCF7) was 4.28, the IC (TGI) (MCF7) was 100 µM and the CC50 (MCF7; [2]) was no less than 100 µM. The GI50 (CCRF-CEM) was 5.62 µM, the pIC50 (CCRF-CEM) was 5.03 and the IC (TGI) (CCRF-CEM) was 100 µM. The CC50 (CCRF-CEM; [3]) was no less than 100 µM.
